We go through 10 compounds from US12091426B2, “Bifunctional degraders of hematopoietic progenitor kinase and therapeutic uses thereof” (Nurix Therapeutics, Inc., priority 2021, dated 2024).

This assay concerns the target T1, HPK1 (Homo sapiens, UniProt Q92918).
T1 construct: A HiBiT tag was introduced by CRISPR on the N terminus of HPK1 in Jurkat cells; host or cells: Jurkat cells (ATCC TIB-152), monoclonal line with CRISPR knock-in of HiBiT at the endogenous HPK1 locus
The assay can be described thus: HPK1 Cellular HiBit Degradation Assay. The assay is classed as cell-based. The following applies: HiBiT HPK1 Jurkat cells, 24 hrs; for DC50: concentration at which 50% of HPK1 was remaining, read-out: DC50 Category; for Dmax: Jurkat, read-out: Dmax Category. The method, boiled down:
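Jurkat cells with CRISPR N-terminal HiBiT-tagged endogenous HPK1 treated 24 h at 37 °C with 11-point, 3.16-fold dilutions (10 uM to 0.1 nM final). HiBiT lytic luminescence gives % HPK1 remaining versus DMSO, with parental cells as background. Four-parameter fit yields DC50; Dmax = 100 minus lowest % remaining.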

The mark [1] stands for this setting: maximum degradation vs DMSO vehicle control.

T1 sequence (Q92918 whole entry): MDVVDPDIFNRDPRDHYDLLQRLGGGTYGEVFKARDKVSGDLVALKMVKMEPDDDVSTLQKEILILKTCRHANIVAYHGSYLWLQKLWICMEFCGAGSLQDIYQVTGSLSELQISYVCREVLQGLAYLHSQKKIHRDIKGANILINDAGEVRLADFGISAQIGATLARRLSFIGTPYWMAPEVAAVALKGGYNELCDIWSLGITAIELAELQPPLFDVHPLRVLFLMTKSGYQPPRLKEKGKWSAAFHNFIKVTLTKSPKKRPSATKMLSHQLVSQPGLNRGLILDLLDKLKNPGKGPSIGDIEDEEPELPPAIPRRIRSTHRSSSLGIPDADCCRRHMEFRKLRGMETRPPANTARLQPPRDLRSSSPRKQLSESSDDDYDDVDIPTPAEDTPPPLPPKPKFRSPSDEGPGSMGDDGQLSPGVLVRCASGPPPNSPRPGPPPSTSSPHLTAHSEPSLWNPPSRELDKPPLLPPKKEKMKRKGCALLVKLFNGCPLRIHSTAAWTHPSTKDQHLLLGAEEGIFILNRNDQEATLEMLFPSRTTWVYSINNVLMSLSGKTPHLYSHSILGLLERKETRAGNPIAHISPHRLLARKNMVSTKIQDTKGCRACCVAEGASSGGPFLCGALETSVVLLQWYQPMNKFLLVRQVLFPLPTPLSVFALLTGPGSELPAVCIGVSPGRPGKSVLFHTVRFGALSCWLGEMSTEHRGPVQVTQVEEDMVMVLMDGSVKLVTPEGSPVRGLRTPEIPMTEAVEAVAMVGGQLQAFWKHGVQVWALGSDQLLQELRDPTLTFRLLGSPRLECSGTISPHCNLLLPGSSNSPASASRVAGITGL

Regarding `CC(C)n1cnc2cc(-c3ccc4c(c3)N(C3CC(N5CCCCC5)C3)C(=O)C43CCN(C(=O)C4CCC(C(=O)N5CCC(COc6ccc(C7CCC(=O)NC7=O)cc6)CC5)CC4)CC3)nc(NC3CC3)c21` (racemic) [Example 230, (3RS)-3-[4-({1-[(1R,4R)-4-({6-[4-(cyclopropylamino)-3-(propan-2-yl)-3H-imidazo[4,5-c]pyridin-6-yl]-2-oxo-1-[(1S,3S)-3-(piperidin-1-yl)cyclobutyl]-1,2-dihydrospiro[indole-3,4′-piperidin]-1′-yl}carbonyl)cyclohexanecarbonyl]piperidin-4-yl}methoxy)phenyl]piperidine-2,6-dione], the DC50 is less than 0.1 µM. Under setting [1], the “Dmax Category” value is “C (C: >50%-<70%)”.

`CC(C)n1cnc2cc(-c3ccc4c(c3)N([C@H]3C[C@@H](N5CCCCC5)C3)C(=O)C43CCN(C(=O)[C@H]4CCCN(C(=O)CC5CCN(c6ccc(C7CCC(=O)NC7=O)cn6)CC5)C4)CC3)nc(NC3CC3)c21` (mixture of isomers) [Example 231, (3RS)-3-[6-(4-{2-[(3S)-3-({6-[4-(cyclopropylamino)-3-(propan-2-yl)-3H-imidazo[4,5-c]pyridin-6-yl]-2-oxo-1-[(1S,3S)-3-(piperidin-1-yl)cyclobutyl]-1,2-dihydrospiro[indole-3,4′-piperidin]-1′-yl}carbonyl)piperidin-1-yl]-2-oxoethyl}piperidin-1-yl)pyridin-3-yl]piperidine-2,6-dione]: the DC50 was in the range of 0.1 to 0.5 µM. Also, under setting [1], the Dmax fell in the range of 50 to 70%.

With `CC(C)n1cnc2cc(-c3ccc4c(c3)N([C@H]3C[C@@H](N5CCCCC5)C3)C(=O)C43CCN(C(=O)[C@@H]4CCN(C(=O)C5CCN(c6ccc(C7CCC(=O)NC7=O)cc6)CC5)C4)CC3)nc(NC3CC3)c21` (mixture of isomers) [Example 232, (3RS)-3-(4-{4-[(3R)-3-({6-[4-(cyclopropylamino)-3-(propan-2-yl)-3H-imidazo[4,5-c]pyridin-6-yl]-2-oxo-1-[(1S,3S)-3-(piperidin-1-yl)cyclobutyl]-1,2-dihydrospiro[indole-3,4′-piperidin]-1′-yl}carbonyl)pyrrolidine-1-carbonyl]piperidin-1-yl}phenyl)piperidine-2,6-dione], the DC50 was less than 0.1 µM. Also, the greatest degradation seen (Dmax) under setting [1] lay in the range of 70 to 85%.

As to `CC(C)n1cnc2cc(-c3ccc4c(c3)N([C@H]3C[C@@H](N5CCCCC5)C3)C(=O)C43CCN(C(=O)[C@@H]4CCCN(C(=O)[C@H]5CC[C@H](Oc6ccc(C7CCC(=O)NC7=O)cc6)CC5)C4)CC3)nc(NC3CC3)c21` (mixture of isomers) [Example 234, (3RS)-3-(4-{[(1R,4R)-4-[(3R)-3-({6-[4-(cyclopropylamino)-3-(propan-2-yl)-3H-imidazo[4,5-c]pyridin-6-yl]-2-oxo-1-[(1S,3S)-3-(piperidin-1-yl)cyclobutyl]-1,2-dihydrospiro[indole-3,4′-piperidin]-1′-yl}carbonyl)piperidine-1-carbonyl]cyclohexyl]oxy}phenyl)piperidine-2,6-dione], the DC50 was less than 0.1 µM. Moreover, under setting [1], the Dmax lay within 70 to 85%.

`CC(C)n1cnc2cc(-c3ccc4c(c3)N([C@H]3C[C@@H](N5CCCCC5)C3)C(=O)C43CCN(C(=O)[C@@H]4CCCN(C(=O)CC5CCN(c6ccc(C7CCC(=O)NC7=O)cn6)CC5)C4)CC3)nc(NC3CC3)c21` (mixture of isomers) [Example 235, (3RS)-3-[6-(4-{2-[(3R)-3-({6-[4-(cyclopropylamino)-3-(propan-2-yl)-3H-imidazo[4,5-c]pyridin-6-yl]-2-oxo-1-[(1S,3S)-3-(piperidin-1-yl)cyclobutyl]-1,2-dihydrospiro[indole-3,4′-piperidin]-1′-yl}carbonyl)piperidin-1-yl]-2-oxoethyl}piperidin-1-yl)pyridin-3-yl]piperidine-2,6-dione]: the DC50 is less than 0.1 µM. For the same compound, the Dmax under setting [1] is 70 to 85%.

As to `CC(C)n1cnc2cc(-c3ccc4c(c3)N([C@H]3C[C@@H](N5CCCCC5)C3)C(=O)C43CCN(C(=O)C4CCN(C(=O)C5CCN(c6ccc(C7CCC(=O)NC7=O)nn6)CC5)CC4)CC3)nc(NC3CC3)c21` (mixture of isomers) [Example 236, (3RS)-3-(6-{4-[4-({6-[4-(cyclopropylamino)-3-(propan-2-yl)-3H-imidazo[4,5-c]pyridin-6-yl]-2-oxo-1-[(1S,3S)-3-(piperidin-1-yl)cyclobutyl]-1,2-dihydrospiro[indole-3,4′-piperidin]-1′-yl}carbonyl)piperidine-1-carbonyl]piperidin-1-yl}pyridazin-3-yl)piperidine-2,6-dione], the DC50 is less than 0.1 µM. The Dmax under setting [1] lay within 70 to 85%.

Turning to `CC(C)n1cnc2cc(-c3ccc4c(c3)N([C@H]3C[C@@H](N5CCCCC5)C3)C(=O)C43CCN(C(=O)C4CCN(C(=O)C5CCN(c6ccc(C7CCC(=O)NC7=O)c(F)c6)CC5)CC4)CC3)nc(NC3CC3)c21` (mixture of isomers) [Example 237, (3RS)-3-(4-{4-[4-({6-[4-(cyclopropylamino)-3-(propan-2-yl)-3H-imidazo[4,5-c]pyridin-6-yl]-2-oxo-1-[(1S,3S)-3-(piperidin-1-yl)cyclobutyl]-1,2-dihydrospiro[indole-3,4′-piperidin]-1′-yl}carbonyl)piperidine-1-carbonyl]piperidin-1-yl}-2-fluorophenyl)piperidine-2,6-dione], the DC50 was less than 0.1 µM. Under setting [1], the Dmax is 70 to 85%.

For the compound `CC(C)n1cnc2cc(-c3ccc4c(c3)N([C@H]3C[C@@H](N5CCCCC5)C3)C(=O)C43CCN(C(=O)C4CN(C(=O)C5CCN(c6ccc(C7CCC(=O)NC7=O)cn6)CC5)C4)CC3)nc(Nc3ccccc3F)c21` (mixture of isomers) [Example 242, (3RS)-3-[6-(4-{3-[(6-{4-[(2-fluorophenyl)amino]-3-(propan-2-yl)-3H-imidazo[4,5-c]pyridin-6-yl}-2-oxo-1-[(1S,3S)-3-(piperidin-1-yl)cyclobutyl]-1,2-dihydrospiro[indole-3,4′-piperidin]-1′-yl)carbonyl]azetidine-1-carbonyl}piperidin-1-yl)pyridin-3-yl]piperidine-2,6-dione], the DC50 is less than 0.1 µM. Moreover, the greatest degradation seen (Dmax) under setting [1] is more than 85%.

For the compound `CC(C)n1cnc2cc(-c3ccc4c(c3)N([C@H]3C[C@@H](N5CCCCC5)C3)C(=O)C43CCN(C(=O)CN4CCN(C(=O)C5CCN(c6ccc(C7CCC(=O)NC7=O)cn6)CC5)CC4)CC3)nc(NC3CC3)c21` (mixture of isomers) [Example 243, (3RS)-3-(6-{4-[4-(2-{6-[4-(cyclopropylamino)-3-(propan-2-yl)-3H-imidazo[4,5-c]pyridin-6-yl]-2-oxo-1-[(1S,3S)-3-(piperidin-1-yl)cyclobutyl]-1,2-dihydrospiro[indole-3,4′-piperidin]-1′-yl}-2-oxoethyl)piperazine-1-carbonyl]piperidin-1-yl}pyridin-3-yl)piperidine-2,6-dione], the DC50 was less than 0.1 µM. Besides, the Dmax under setting [1] lay in the range of 70 to 85%.

With `CC(C)n1cnc2cc(-c3ccc4c(c3)N([C@H]3C[C@@H](N5CCCCC5)C3)C(=O)C43CCN(C(=O)[C@]4(C)CCN(C(=O)C5CCN(c6ccc([C@@H]7CCC(=O)NC7=O)cc6)CC5)C4)CC3)nc(NC3CC3)c21` (racemic) [Example 244, (3RS)-3-(4-{4-[(3R)-3-({6-[4-(cyclopropylamino)-3-(propan-2-yl)-3H-imidazo[4,5-c]pyridin-6-yl]-2-oxo-1-[(1S,3S)-3-(piperidin-1-yl)cyclobutyl]-1,2-dihydrospiro[indole-3,4′-piperidin]-1′-yl}carbonyl)-3-methylpyrrolidine-1-carbonyl]piperidin-1-yl}phenyl)piperidine-2,6-dione], the DC50 was less than 0.1 µM. Besides, the greatest degradation seen (Dmax) under setting [1] fell in the range of 70 to 85%.
